# According to patent publication US20260124201A1, “CYCLOPENTANE COMPOUND” (Kissei Pharmaceutical Co., Ltd., priority 2022, published 2026):
# Target: T1, human OX2R (Homo sapiens, UniProt O43614)
# T1 construct: expressed in transfected cells
# T1 sequence (O43614 1-444): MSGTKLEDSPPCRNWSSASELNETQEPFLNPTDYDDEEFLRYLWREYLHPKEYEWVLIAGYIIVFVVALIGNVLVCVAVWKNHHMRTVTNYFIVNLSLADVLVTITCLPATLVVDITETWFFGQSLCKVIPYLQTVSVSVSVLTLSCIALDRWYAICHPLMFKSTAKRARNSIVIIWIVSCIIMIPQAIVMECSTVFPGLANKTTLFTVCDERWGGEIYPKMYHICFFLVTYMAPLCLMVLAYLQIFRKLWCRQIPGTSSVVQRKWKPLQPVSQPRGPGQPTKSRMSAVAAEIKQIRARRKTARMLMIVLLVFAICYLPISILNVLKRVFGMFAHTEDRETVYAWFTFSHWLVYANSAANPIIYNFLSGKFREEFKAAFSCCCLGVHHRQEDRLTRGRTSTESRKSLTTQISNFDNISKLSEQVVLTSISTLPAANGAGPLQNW
# Assay: Measurement of OX2R agonist activity (intracellular calcium concentration change, Fluo4-AM, FDSS 7000)
# Type: cell-based
# Details: compound concentration 10 μM; human OX2R-expressing CHO-K1 cells; 1 μM human orexin A peptide = 100%, medium alone = 0%
# Text: The following abbreviations in the description, the figures and the tables have the following meanings, respectively. • AZADOL (registered trademark): 2-Hydroxy-2-azaadamantane • Boc2O: di-tert-butyl dicarbonate • DIPEA: N,N-diisopropylethylamine • DCM: dichloromethane • DMAP: 4-dimethylaminopyridine • DMF: N,N-dimethylformamide • DMSO: dimethylsulfoxide • Deoxo-Fluor: bis(2-methoxyethyl)-aminosulfur trifluoride • HATU: O-(7-azabenzotriazol-1-yl)-N,N,N′,N′-tetramethyluronium hexafluorophosphate • LDA: lithium diisopropylamide • MeCN: acetonitrile • Me4tBuXPhos: 2-di-tert-butylphosphino-3,4,5,6-tetramethyl-2′,4′,6′-triisopropyl-1,1′-biphenyl • MTBE: methyl tert-butyl ether • NMP: N-methylpyrrolidone • PdCl2(PPh3)2: dichlorobis(triphenylphosphine)palladium(II) • Pd(dba)2: bis(dibenzylideneacetone)palladium(0) • Pd2(dba)3: tris(dibenzylideneacetone)dipalladium(0) • Pd(dppf)Cl2: [1,1′-bis(diphenylphosphino)ferrocene]dichloropalladium(II) • Pd(PPh3)4: tetrakis(triphenylphosphine)palladium(0) • TEA: triethylamine • TFA: trifluoroacetic acid • THF: tetrahydrofuran • Xphos: 2-dicyclohexylphosphino-2′,4′,6′-triisopropylbiphenyl • Xphos Pd G3: (2-dicyclohexylphosphino-2′,4′,6′-triisopropyl-1,1′-biphenyl)[2-(2′-amino-1,1′-biphenyl)]palladium(II) methanesulfonic acid salt • 10% Pd/C: Palladium 10% on Carbon (wetted with ca. 55% water) • APS: aminopropylated silica gel • ODS: octadecyl-silylated silica gel • Method A: column chromatography with an aminopropylated silica gel column followed by a silica gel column • Chiral preparative column chromatography: chiral preparative column chromatography using YMC CHIRALART Cellulose-SB • Ref. No.: Reference Example Number • Str.: structural formula • Ex. No.: Example Number • Phys. data: physical data • ^1H-NMR: hydrogen nuclear magnetic resonance spectrum • CDCl3: chloroform-d1 • MS: mass spectrometry (The measured values in the tables were measured by electrospray ionization or multiionization using electrospray ionization-atmospheric pressure chemical ionization.) • Act.: activation rate of test substance at a compound concentration of 10 μM calculated by setting the fluorescence intensity obtained when human orexin A peptide was added at a concentration of 1 μM as 100% and the fluorescence intensity obtained when the medium alone was added as 0% • CHO: Chinese hamster ovary • HEPES: 2-[4-(2-hydroxyethyl)-1-piperazinyl]ethanesulfonic acid
# A human OX2R sequence (Accession No. NM_001526.4) was inserted into the multiple cloning site of pcDNA3.4 (Life Technologies Japan Ltd.) to clone a plasmid vector for human OX2R expression. The plasmid was introduced into CHO-K1 cells using Lipofectamine 2000 (Life Technologies Japan Ltd.). Two days later, the transgenic CHO-K1 cells were passaged into 175T flasks and cultured selectively for 6 days. As a selection medium, Ham's F-12 Nutrient Mix (Life Technologies Japan Ltd.), containing Geneticin (registered trademark) (Life Technologies Japan Ltd.) at a final concentration of 1 mg/mL and inactivated fetal bovine serum (Biowest) at a final concentration of 10%, was used. After the selective culture, the cells were reseeded into 96-well plates, and a human OX2R-expressing cell line was obtained by limiting dilution.
# The agonist effects of test substances on human OX2R were evaluated using the intracellular calcium concentration-change upon stimulation as an indicator. A day before measurement of the intracellular calcium concentrations, human OX2R-expressing cells suspended in a medium were seeded into 384-well plates at 5×10^3 cells/50 μL/well and cultured overnight in an incubator set at 37° C. and 5% CO2. After incubation, the medium was removed and replaced with 20 μL of a loading buffer. […]
row,SMILES,Act. (%): activation rate of test substance
1,"CCNC(=O)[C@@]1(Cc2cccc(-c3ccccc3)c2)CC[C@H](NS(C)(=O)=O)C1 (relative stereo) [Example 1, (1R*,3S*)-1-([1,1′-Biphenyl]-3-ylmethyl)-N-ethyl-3-(methylsulfonamido)cyclopentane-1-carboxamide]",50%
2,"CON(C)C(=O)[C@@]1(Cc2cccc(-c3ccccc3)c2)CC[C@H](NS(C)(=O)=O)C1 (relative stereo) [Example 2, (1R*,3S*)-1-([1,1′-Biphenyl]-3-ylmethyl)-N-methoxy-N-methyl-3-(methylsulfonamido)cyclopentane-1-carboxamide]",84%
3,"CON(C)C(=O)[C@@]1(Cc2ccc(F)c(-c3ccccc3F)c2)CC[C@H](NS(C)(=O)=O)C1 (relative stereo) [Example 3, (1R*,3S*)-1-((2′,6-Difluoro-[1,1′-biphenyl]-3-yl)methyl)-N-methoxy-N-methyl-3-(methylsulfonamido)cyclopentane-1-carboxamide]",93%
4,CON(C)C(=O)[C@@]1(Cc2ccc(F)c(-c3ccc(F)cc3)c2)CC[C@H](NS(C)(=O)=O)C1 (relative stereo) [Example 4],82%
5,CON(C)C(=O)[C@@]1(Cc2ccc(F)c(-c3cc(F)cc(F)c3)c2)CC[C@H](NS(C)(=O)=O)C1 (relative stereo) [Example 5],73%
6,"CNS(=O)(=O)N[C@H]1CC[C@](Cc2cccc(-c3ccccc3)c2)(C(=O)N(C)OC)C1 (relative stereo) [Example 6, (1R*,3S*)-1-([1,1′-Biphenyl]-3-ylmethyl)-N-methoxy-N-methyl-3-((N-methylsulfamoyl)amino)cyclopentane-1-carboxamide]",92%
7,"CS(=O)(=O)N[C@H]1CC[C@](Cc2cccc(-c3ccccc3)c2)(C(=O)N2CCCO2)C1 (relative stereo) [Example 7, N-((1S*,3R*)-3-([1,1′-Biphenyl]-3-ylmethyl)-3-(isoxazolidine-2-carbonyl)cyclopentyl)methanesulfonamide]",70%
8,C[C@H]1CCCN1C(=O)[C@@]1(Cc2cccc(-c3ccccc3)c2)CC[C@H](NS(C)(=O)=O)C1 (relative stereo) [Example 8],75%
9,C[C@@H]1CCCN1C(=O)[C@@]1(Cc2cccc(-c3ccccc3)c2)CC[C@H](NS(C)(=O)=O)C1 (relative stereo) [Example 9],58%
10,"CON(C)C(=O)[C@@]1(Cc2cccc(-c3ccccc3C#N)c2)CC[C@H](NS(C)(=O)=O)C1 (relative stereo) [Example 10, (1R*,3S*)-1-((2′-Cyano-[1,1′-biphenyl]-3-yl)methyl)-N-methoxy-N-methyl-3-(methylsulfonamido)cyclopentane-1-carboxamide]",41%
11,CON(C)C(=O)[C@@]1(Cc2cccc(-c3ccccc3O)c2)CC[C@H](NS(C)(=O)=O)C1 (relative stereo) [Example 11],71%
12,"CON(C)C(=O)[C@@]1(Cc2cccc(-c3ccc(F)cn3)c2)CC[C@H](NS(C)(=O)=O)C1 (relative stereo) [Example 12, (1R*,3S*)-1-(3-(5-Fluoropyridin-2-yl)benzyl)-N-methoxy-N-methyl-3-(methylsulfonamido)cyclopentane-1-carboxamide]",86%
13,CON(C)C(=O)[C@@]1(Cc2cccc(-c3nc(C)co3)c2)CC[C@H](NS(C)(=O)=O)C1 (relative stereo) [Example 13],90%
14,CON(C)C(=O)[C@@]1(Cc2cccc(-c3ccco3)c2)CC[C@H](NS(C)(=O)=O)C1 (relative stereo) [Example 14],93%
15,"CON(C)C(=O)[C@@]1(Cc2cccc(-c3ncc(Cl)cn3)c2)CC[C@H](NS(C)(=O)=O)C1 (relative stereo) [Example 15, (1R*,3S*)-1-(3-(5-Chloropyrimidin-2-yl)benzyl)-N-methoxy-N-methyl-3-(methylsulfonamido)cyclopentane-1-carboxamide]",86%
16,CON(C)C(=O)[C@@]1(Cc2cccc(-c3cscn3)c2)CC[C@H](NS(C)(=O)=O)C1 (relative stereo) [Example 16],91%
17,CON(C)C(=O)[C@@]1(Cc2cccc(-c3ncc(F)cn3)c2)CC[C@H](NS(C)(=O)=O)C1 (relative stereo) [Example 17],99%
18,CON(C)C(=O)[C@@]1(Cc2cccc(-c3ncc(C)cn3)c2)CC[C@H](NS(C)(=O)=O)C1 (relative stereo) [Example 18],87%
19,CON(C)C(=O)[C@@]1(Cc2cccc(-c3ncc(C(F)(F)F)cn3)c2)CC[C@H](NS(C)(=O)=O)C1 (relative stereo) [Example 19],45%
20,COc1cnc(-c2cccc(C[C@]3(C(=O)N(C)OC)CC[C@H](NS(C)(=O)=O)C3)c2)nc1 (relative stereo) [Example 20],75%
21,"CON(C)C(=O)[C@@]1(Cc2cccc(-c3ncc(N(C)C)cn3)c2)CC[C@H](NS(C)(=O)=O)C1 (relative stereo) [Example 21, (1R*,3S*)-1-(3-(5-(Dimethylamino)pyrimidin-2-yl)benzyl)-N-methoxy-N-methyl-3-(methylsulfonamido)cyclopentane-1-carboxamide]",48%
22,CON(C)C(=O)[C@@]1(Cc2ccc(C)c(-c3ncc(F)cn3)c2)CC[C@H](NS(C)(=O)=O)C1 (relative stereo) [Example 22],87%
23,CON(C)C(=O)[C@@]1(Cc2ccc(F)c(-c3ncc(Cl)cn3)c2)CC[C@H](NS(C)(=O)=O)C1 (relative stereo) [Example 23],83%
24,CON(C)C(=O)[C@@]1(Cc2ccc(F)c(-c3ncc(C)cn3)c2)CC[C@H](NS(C)(=O)=O)C1 (relative stereo) [Example 24],83%
25,CON(C)C(=O)[C@@]1(Cc2ccc(C(F)(F)F)c(-c3ncc(F)cn3)c2)CC[C@H](NS(C)(=O)=O)C1 (relative stereo) [Example 25],63%
26,CON(C)C(=O)[C@@]1(Cc2cc(-c3ncccn3)ccc2F)CC[C@H](NS(C)(=O)=O)C1 (relative stereo) [Example 26],99%
27,"CON(C)C(=O)[C@@]1(Cc2cccc(-n3nccn3)c2)CC[C@H](NS(C)(=O)=O)C1 (relative stereo) [Example 27, (1R*,3S*)-1-(3-(2H-1,2,3-Triazol-2-yl)benzyl)-N-methoxy-N-methyl-3-(methylsulfonamido)cyclopentane-1-carboxamide]",87%
28,"CCN(C)C(=O)[C@@]1(Cc2cccc(-c3ncccn3)c2)CC[C@H](NS(C)(=O)=O)C1 (relative stereo) [Example 28, (1R*,3S*)—N-Ethyl-N-methyl-3-(methylsulfonamido)-1-(3-(pyrimidin-2-yl)benzyl)cyclopentane-1-carboxamide]",92%
